The record followed here is patent publication US10738082B2, “One-bead-two-compound macrocyclic library and methods of preparation and use” (University of South Florida, priority 2017, dated 2020).

The Kd is the concentration at which binding is half-saturated.

For assay [1], the system named is cell migration. The note with it: 10 μM, 24 hours. How it is done:
Invasion and migration assays were performed as described before. Cells were plated into the top chambers and treated with either vehicle or 10 μM C-84. 24 hours later cells in top chamber were scraped and migrated cells were fixed with crystal violet staining.

Assay [2] deals with cell invasion. The experiment in a line: Cell invasion assay. Format: cell-based. As to conditions: 10 μM, 24 hours. As to the method: Invasion and migration assays were performed as described before.
Assay [3] has as its target GST protein (Schistosoma japonicum, UniProt P08515). In words: Fluorescence polarization (FP) binding assay, GST protein. A general note: Fluorescence polarisation rises when a labelled molecule tumbles more slowly, as on binding a larger partner.

Sequence of GST protein (P08515 whole entry): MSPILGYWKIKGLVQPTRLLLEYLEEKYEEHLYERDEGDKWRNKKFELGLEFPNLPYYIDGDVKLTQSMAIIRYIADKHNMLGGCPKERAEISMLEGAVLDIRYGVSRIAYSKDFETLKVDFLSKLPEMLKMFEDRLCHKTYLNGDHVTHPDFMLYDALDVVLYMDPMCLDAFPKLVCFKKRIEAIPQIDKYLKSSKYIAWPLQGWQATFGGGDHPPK

Regarding `NC(=O)CN1C[C@H](Cc2ccccc2)NC(=O)CN(C(=O)CCC(=O)O)C[C@H](CCC(=O)O)NC(=O)CN(C(=O)Cc2ccc3c(c2)OCO3)C[C@H](CCC(=O)O)NC(=O)CN(C(=O)CCC2CCCCC2)C[C@H](Cc2ccccc2)NC(=O)c2ccc(cc2)CSCCC1=O` [C-84], the “decrease in cell migration” value in assay [1] is recorded as “around 70%”. For the same compound, the “decrease in cell invasion” value in assay [2] is ~80%.

Regarding `NC(=O)[C@H](CCCCNC(=S)Nc1ccc(-c2c3ccc(=O)cc-3oc3cc(O)ccc23)c(C(=O)O)c1)NC(=O)CN1C[C@H](Cc2ccccc2)NC(=O)CN(C(=O)CCC(=O)O)C[C@H](CCC(=O)O)NC(=O)CN(C(=O)Cc2ccc3c(c2)OCO3)C[C@H](CCC(=O)O)NC(=O)CN(C(=O)CCC2CCCCC2)C[C@H](Cc2ccccc2)NC(=O)c2ccc(cc2)CSCCC1=O` [YS-D-44], the “GST binding weaker than EphA2 binding” value in assay [3] (Kd GST vs Kd EphA2) is recorded as ~150 fold. Also, the Kd in assay [3] (fluorescence polarization, 50 nM FITC labeled AApeptide, GST 0.3125 to 55 μM, read-out: binding affinity to GST protein, Kd) was 12.3 µM.
